Values after ≈ are worked out from the molar mass of the structure shown. Like-named read-outs stand apart in the source and are kept apart here.
Assays:
S. aureus P2 = experiment: Antibacterial activity, pre-exposure; assay type: cell-based, Staphylococcus aureus; conditions: for Average inhibition %, biofilms biomass / Average inhibition %, biofilms viability / Average inhibition %, planktonic cells turbidity / Average inhibition %, planktonic cells viability / inhibition at 5 µM / inhibition at 10 µM / inhibition at 15 µM / inhibition at 25 µM: S. aureus P2, pre-exposure, ± SD
Experimental: (§1) The antimicrobial activity was assessed in a similar way for the initial screening and the dose–response evaluation against different bacterial strains. With the exception of the post-exposure experiment, the compounds were added to the wells along with the bacteria to test the ability of compounds to prevent bacterial growth and biofilm formation (pre-exposure). The compounds were diluted in DMSO and plated directly in 96-well plates before adding the bacterial culture, and plates were incubated for 18 h under aerobic conditions at 37 °C with shaking (220 rpm). The antibacterial activity of the compounds was assessed on planktonic cells and biofilms separately using two different measurements for each: optical density (turbidity) and resazurin reduction (viability) on planktonic cells and resazurin followed by a crystal violet staining assay (total biomass) on biofilms, as described in the following sections.
(§2) The resazurin staining was performed according to the protocol previously optimized with a few modifications.[46] Briefly, the planktonic solution was first transferred into a new 96-well plate and the OD of the planktonic solution was measured using a Varioskan LUX Multimode microplate reader (Thermo Scientific, Vantaa, Finland). Then, 10 μL of a 400 μM resazurin (R7017, Sigma-Aldrich, St. Louis, MO) diluted in phosphate-buffered saline (PBS) (Thermo Fisher Scientific, MA) was added to the wells (for a final resazurin concentration of 20 μM). The plate was incubated in the dark with shaking (220 rpm) for about 3–10 min at room temperature with S. aureus and A. baumannii (until the bacteria controls turned pink) or for 20 min at 37 °C with P. aeruginosa. Fluorescence was measured at λex = 560 nm and λem = 590 nm using the top optics of the Varioskan LUX Multimode microplate reader. The planktonic plate was then discarded. The original challenge plate containing the biofilms was washed once with PBS, and 200 μL of a 20 μM resazurin solution was added to the wells. The plate was incubated in the dark at 37 °C with shaking (220 rpm) for 30 min with S. aureus, 60 min with A. baumannii, and 90 min with P. aeruginosa. Fluorescence was measured as described for the planktonic solution. The biofilms were next treated with crystal violet staining.
(§3) After removing the resazurin solution from the plate, biofilms were fixed with ethanol 100% for 15 min at room temperature. Ethanol was then removed, and the biofilms were left to air-dry completely at RT. Crystal violet, diluted to 1:100 in deionized water from the 2.3% commercial solution (HT90132, Sigma-Aldrich, St. Louis, MO), was added to the wells and, after a 5 min incubation with the dye, the biofilms were washed twice with deionized water and left to air-dry for about 10 min. The dye was solubilized in ethanol 100% for 1 h, and absorbance was measured at 595 nm using a Multiskan Sky microplate spectrophotometer (Thermo Scientific, Vantaa, Finland).

S. aureus ATCC 12598 = experiment: Antibacterial activity, pre-exposure; assay type: cell-based, Staphylococcus aureus; conditions: for Average inhibition %, biofilms biomass / Average inhibition %, biofilms viability / Average inhibition %, planktonic cells turbidity / Average inhibition %, planktonic cells viability / inhibition at 5 µM / inhibition at 10 µM / inhibition at 15 µM / inhibition at 25 µM: S. aureus ATCC 12598, pre-exposure, ± SD
Experimental: as §1, §2, §3

[1] = Colloidal aggregation by nephelometry; assay type: physicochemical; conditions: 25 µM
Experimental: 3. Aggregation data (Figure S3)
Potential colloidal aggregation in biological assays was studied at five concentrations (5 µM, 10 µM, 15 µM,
25 µM, 50 µM). The original assay conditions were simulated, and the light scattering of potential aggregates
in the mixture was studied by nephelometric methods using Nepheloskan Ascent (Labsystems, Finland).
Aggregation of the blank and compounds fingolimod, 43, 45, 55, 62, 79 and 82 were measured as triplicates
from one independent experiment at 400 V and at room temperature.
formation at 50 µM. […] However, at 15
µM, 10 µM and 5 µM, the obtained values were close to those observed by blank, therefore indicating only
minor or no detectable aggregation.
Figure S3: Aggregation data for fingolimod and compounds 43, 45, 55, 62, 79, 82. RNU = relative nephelometric unit.
The data are shown as the mean ± SD and normalized to the blank.
(1 picture or pasted object on this page, not shown here)

[2] = Cytotoxicity, resazurin staining assay; assay type: cell-based, human; conditions: human, 24 h incubation
Experimental: The cytotoxicity of the compounds was assessed on the three different human cell lines, A549, HEp-2, and HL-60, using the redox-based resazurin staining assay. The cells were seeded in clear 96-well plates at a density of 1 × 10^4 cells per well in a volume of 200 μL per well. The adherent cells were let to attach for 24 h before changing the media and adding the compounds (final concentration of 0.25% DMSO). HL-60 were counted and added to the plates at a density of 1 × 10^4 cells per well in a volume of 200 μL directly with the compounds. Untreated cells were used as negative controls, and cells treated with 1% TritonX-100 (Sigma-Aldrich, St. Louis, MO) were used as positive controls for cytotoxicity. The cells were incubated with the compounds for 24 h.
For the resazurin assay, the media was first removed, and the adherent cells were washed once with PBS. Then, 200 μL of 20 μM resazurin was added per well and cells were incubated for two more hours before the measurement of fluorescence, as mentioned earlier. For HL-60, 10 μL of 400 μM resazurin was added directly to the wells and the cells were incubated for an additional 4 h before the measurement of fluorescence.

In the case of “2-Amino-2-(4-decylbenzyl)propane-1,3-diol [Compound 45]”, the “Average inhibition %, biofilms biomass” value (S. aureus P2; 5 µM) is reported as 74.6 ± 24.7%, the “Average inhibition %, biofilms viability” value (S. aureus P2; 5 µM) is reported as 69.6 ± 37.8% and the “Average inhibition %, planktonic cells turbidity” value (S. aureus P2; 5 µM) is reported as 74.4 ± 34.2%. The “Average inhibition %, planktonic cells viability” value (S. aureus P2; 5 µM) was 70 ± 36.1%, the “Average inhibition %, biofilms biomass” value (S. aureus P2; 10 µM) was 97.6 ± 0.3% and the “Average inhibition %, biofilms viability” value (S. aureus P2; 10 µM) was 99.6 ± 0%. For the same molecule, the “Average inhibition %, planktonic cells turbidity” value (S. aureus P2; 10 µM) was 99.4 ± 0.1%, the “Average inhibition %, planktonic cells viability” value (S. aureus P2; 10 µM) was 99.8 ± 0% and the “Average inhibition %, biofilms biomass” value (S. aureus P2; 15 µM) was 96.9 ± 1.4%. For the same molecule, the “Average inhibition %, biofilms viability” value (S. aureus P2; 15 µM) was 99.6 ± 0%, the “Average inhibition %, planktonic cells turbidity” value (S. aureus P2; 15 µM) was 99.1 ± 0.1% and the “Average inhibition %, planktonic cells viability” value (S. aureus P2; 15 µM) was 99.7 ± 0.1%. For the same molecule, the “Average inhibition %, biofilms biomass” value (S. aureus P2; 25 µM) was 97.6 ± 0.3%, the “Average inhibition %, biofilms viability” value (S. aureus P2; 25 µM) was 99.6 ± 0% and the “Average inhibition %, planktonic cells turbidity” value (S. aureus P2; 25 µM) was 98.6 ± 0.1%. The “Average inhibition %, planktonic cells viability” value (S. aureus P2; 25 µM) was 99.6 ± 0.1%, the “MIC S. aureus P2” value (S. aureus P2; pre-exposure, 18 h) was 5 to 10 µM and the “Average inhibition %, biofilms biomass” value (S. aureus ATCC 12598; 5 µM) was 75.4 ± 28.1%. For the same molecule, the “Average inhibition %, biofilms viability” value (S. aureus ATCC 12598; 5 µM) was 83.6 ± 38.2%, the “Average inhibition %, planktonic cells turbidity” value (S. aureus ATCC 12598; 5 µM) was 89.3 ± 24.1% and the “Average inhibition %, planktonic cells viability” value (S. aureus ATCC 12598; 5 µM) was 83.4 ± 39.6%. The “Average inhibition %, biofilms biomass” value (S. aureus ATCC 12598; 10 µM) was 95.3 ± 0.4%, the “Average inhibition %, biofilms viability” value (S. aureus ATCC 12598; 10 µM) was 99.6 ± 0.1% and the “Average inhibition %, planktonic cells turbidity” value (S. aureus ATCC 12598; 10 µM) was 99.4 ± 0%. The “Average inhibition %, planktonic cells viability” value (S. aureus ATCC 12598; 10 µM) was 99.8 ± 0%, the “Average inhibition %, biofilms biomass” value (S. aureus ATCC 12598; 15 µM) was 94.4 ± 0.3% and the “Average inhibition %, biofilms viability” value (S. aureus ATCC 12598; 15 µM) was 99.6 ± 0.1%. The “Average inhibition %, planktonic cells turbidity” value (S. aureus ATCC 12598; 15 µM) was 99.1 ± 0%, the “Average inhibition %, planktonic cells viability” value (S. aureus ATCC 12598; 15 µM) was 99.8 ± 0% and the “Average inhibition %, biofilms biomass” value (S. aureus ATCC 12598; 25 µM) was 94.9 ± 1%. For the same molecule, the “Average inhibition %, biofilms viability” value (S. aureus ATCC 12598; 25 µM) was 99.6 ± 0.1%, the “Average inhibition %, planktonic cells turbidity” value (S. aureus ATCC 12598; 25 µM) was 98.3 ± 0.2% and the “Average inhibition %, planktonic cells viability” value (S. aureus ATCC 12598; 25 µM) was 99.8 ± 0.1%. For the same molecule, the “MIC S. aureus ATCC 12598” value (S. aureus ATCC 12598; pre-exposure, 18 h) was 5 to 10 µM and the “Aggregation (nephelometry)” value [1] was “potential aggregation”.
Molecule `CCCCCCCCc1cccc(CCC(N)(CO)CO)c1` [Compound 43, 2-Amino-2-(3-octylphenethyl)propane-1,3-diol] has a CC50 at 24 h ([2]; A549 cells) of over 40 µM, a CC50 at 24 h ([2]; HEp-2 cells) of over 40 µM and a CC50 at 24 h ([2]; HL-60 cells) of 23.4 ± 3.2 µM. The “Aggregation (nephelometry)” value [1] was “potential aggregation”.
`CCCCCCCCc1ccc2ccc(CC(N)(CO)CO)nc2c1` [Compound 82, 2-Amino-2-[(7-octylquinolin-2-yl)methyl]propane-1,3-diol] showed a CC50 at 24 h ([2]; A549 cells) of 27.5 ± 3 µM, a CC50 at 24 h ([2]; HEp-2 cells) of 28.8 ± 1.8 µM and a CC50 at 24 h ([2]; HL-60 cells) of 6.5 ± 0.8 µM. The “Average inhibition %, biofilms viability” value (S. aureus P2; 5 µM) was 23.7 ± 8.8%, the “Average inhibition %, planktonic cells viability” value (S. aureus P2; 5 µM) was 1 ± 1.8% and the “Average inhibition %, biofilms viability” value (S. aureus P2; 10 µM) was 99.5 ± 0%. The “Average inhibition %, planktonic cells viability” value (S. aureus P2; 10 µM) was 99.8 ± 0%, the “Average inhibition %, biofilms viability” value (S. aureus P2; 15 µM) was 99.8 ± 0% and the “Average inhibition %, planktonic cells viability” value (S. aureus P2; 15 µM) was 99.6 ± 0%. The “Average inhibition %, biofilms viability” value (S. aureus P2; 25 µM) was 99.7 ± 0.1%, the “Average inhibition %, planktonic cells viability” value (S. aureus P2; 25 µM) was 99.5 ± 0% and the MIC (S. aureus P2; Staphylococcus aureus, P2, pre-exposure, 18 h) was 10 µM (≈ 3.44 µg/mL). The inhibition at 5 µM (S. aureus P2; Staphylococcus aureus, 5 µM, read-out: Average inhibition %, biofilms biomass) was 39.9 ± 7%, the inhibition at 5 µM (S. aureus P2; Staphylococcus aureus, 5 µM, read-out: Average inhibition %, planktonic cells turbidity) was 5 ± 2.2% and the inhibition at 10 µM (S. aureus P2; Staphylococcus aureus, 10 µM, read-out: Average inhibition %, biofilms biomass) was 97.6 ± 0.4%. It also gave an inhibition at 10 µM (S. aureus P2; Staphylococcus aureus, 10 µM, read-out: Average inhibition %, planktonic cells turbidity) of 99.6%, an inhibition at 15 µM (S. aureus P2; Staphylococcus aureus, 15 µM, read-out: Average inhibition %, biofilms biomass) of 97.2 ± 0.8% and an inhibition at 15 µM (S. aureus P2; Staphylococcus aureus, 15 µM, read-out: Average inhibition %, planktonic cells turbidity) of 99.7%. The inhibition at 25 µM (S. aureus P2; Staphylococcus aureus, 25 µM, read-out: Average inhibition %, biofilms biomass) was 96.4 ± 0.6%, the inhibition at 25 µM (S. aureus P2; Staphylococcus aureus, 25 µM, read-out: Average inhibition %, planktonic cells turbidity) was 99.4 ± 0.1% and the “Average inhibition %, biofilms viability” value (S. aureus ATCC 12598; 5 µM) was 12.2 ± 12.8%. For the same molecule, the “Average inhibition %, planktonic cells viability” value (S. aureus ATCC 12598; 5 µM) was 13.3 ± 5%, the “Average inhibition %, biofilms viability” value (S. aureus ATCC 12598; 10 µM) was 99.1 ± 0.2% and the “Average inhibition %, planktonic cells viability” value (S. aureus ATCC 12598; 10 µM) was 99.8 ± 0%. For the same molecule, the “Average inhibition %, biofilms viability” value (S. aureus ATCC 12598; 15 µM) was 99.5 ± 0%, the “Average inhibition %, planktonic cells viability” value (S. aureus ATCC 12598; 15 µM) was 99.7 ± 0% and the “Average inhibition %, biofilms viability” value (S. aureus ATCC 12598; 25 µM) was 99.7 ± 0.1%. The “Average inhibition %, planktonic cells viability” value (S. aureus ATCC 12598; 25 µM) was 99.6 ± 0.1%, the inhibition at 5 µM (S. aureus ATCC 12598; Staphylococcus aureus, ATCC12598, 5 µM, read-out: Average inhibition %, biofilms biomass) was 26.3 ± 11.6% and the inhibition at 5 µM (S. aureus ATCC 12598; Staphylococcus aureus, ATCC12598, 5 µM, read-out: Average inhibition %, planktonic cells turbidity) was 20.6 ± 8.5%. The inhibition at 10 µM (S. aureus ATCC 12598; Staphylococcus aureus, ATCC12598, 10 µM, read-out: Average inhibition %, biofilms biomass) was 94.4 ± 1.7%, the inhibition at 10 µM (S. aureus ATCC 12598; Staphylococcus aureus, ATCC12598, 10 µM, read-out: Average inhibition %, planktonic cells turbidity) was 99.6 ± 0.1% and the inhibition at 15 µM (S. aureus ATCC 12598; Staphylococcus aureus, ATCC12598, 15 µM, read-out: Average inhibition %, biofilms biomass) was 97.1 ± 1.1%. It also gave an inhibition at 15 µM (S. aureus ATCC 12598; Staphylococcus aureus, ATCC12598, 15 µM, read-out: Average inhibition %, planktonic cells turbidity) of 99.7%, an inhibition at 25 µM (S. aureus ATCC 12598; Staphylococcus aureus, ATCC12598, 25 µM, read-out: Average inhibition %, biofilms biomass) of 94.6 ± 1.4% and an inhibition at 25 µM (S. aureus ATCC 12598; Staphylococcus aureus, ATCC12598, 25 µM, read-out: Average inhibition %, planktonic cells turbidity) of 99.4 ± 0.2%. For the same molecule, the MIC (S. aureus ATCC 12598; Staphylococcus aureus, ATCC12598, pre-exposure, 18 h, read-out: MIC S. aureus ATCC 12598) was 10 µM (≈ 3.44 µg/mL).

From PMC8296573, “Synthesis and Biological Evaluation of Fingolimod Derivatives as Antibacterial Agents” (ACS Omega, 2021)
